“And” between values parts separate entries of the source, which are not always exact repeats. Identical values can stand only once.

The nature of the data set: Blood-brain barrier penetration by the method of Oldendorf (radioactively marked active material, A. carotis injection, brain radioactivity after 15 seconds). The note with it: for percentage proportion of active material which has passed the blood-brain barrier, with C5: with addition of glycerol 1-pentyl ether; for percentage proportion of active material which has passed the blood-brain barrier, with C5 / percentage proportion of active material which has passed the blood-brain barrier, with C3: about 0.3 Osmol/l; for percentage proportion of active material which has passed the blood-brain barrier, with C5 / percentage proportion of active material which has passed the blood-brain barrier, with C3 / percentage proportion of active material which has passed the blood-brain barrier, without: A. carotis, 15 seconds, + dissolved in inger albumin; for percentage proportion of active material which has passed the blood-brain barrier, with C3: with addition of glycerol 1-propyl ether; for percentage proportion of active material which has passed the blood-brain barrier, without: without addition of a compound of the general formula. The protocol:
The effectiveness of the medicament according to the invention was tested according to the method of Oldendorf (Brain-Res., 24, 372-376 (1970)). […] In the case of the medicament according to the invention, the administration took place into the A. carotis. 15 seconds later, the experimental animal was decapitated, the brain removed and the radioactivity bound therein determined. […] The numerical values give the percentage proportion of active material which has passed the blood-brain barrier. As comparative substance, there was employed an isotonic buffer solution. The compound of the general formula was present in iso-osmolar concentration, which corresponds to about 0.3 Osmol/ 1. in the solution administered.
In the case of the experiments according to the method of Oldendorf, the active materials were used in amounts of between 10 and 100 μmol. There was thereby obtained no dependency of the penetration percentage of the active material concentration, i.e. that with increasing amount of active material, the percentage passing the blood-brain barrier remained about the same. In the case of methotrexate as active material, the penetration was also investigated in the case of higher concentrations.
The penetration achieved also depends upon the amount of glycerol derivative of the general formula used. Referring to the results given in Table 1, e.g. with endoxan and the C3 additive, there was achieved a penetration of scarcely 20%, whereas with an equal amount of the C5 additive the penetration lay above 50%. However, if one increases the amount of the C3 derivative 2.5 fold, then the percentage penetrating also increases to about 50%.

For the compound `CN(Cc1cnc2nc(N)nc(N)c2n1)c1ccc(C(=O)N[C@@H](CCC(=O)O)C(=O)O)cc1` [methotrexate], the “percentage proportion of active material which has passed the blood-brain barrier, with C5” value (from here on “percentage proportion … with C5”) is 26.2 ± 5.8%; the “percentage proportion of active material which has passed the blood-brain barrier, with C3” value (from here on “percentage proportion … with C3”) was determined as 5.7 ± 1.0%; the “percentage proportion of active material which has passed the blood-brain barrier, without” value (from here on “percentage proportion … without”) is 4.7 ± 0.6%. In addition, the “proportion of active material advancing to the place of action at higher concentrations” value (higher concentrations, up to above 10 mMole) is recorded as “a linear increase”. Also, the “percentage proportion of active material passing the barrier at higher concentrations” value (up to above 10 mMole) is “practically the same percentage proportion of active material passing the barrier”.
Regarding `O=C1c2c(O)ccc(O)c2C(=O)c2c(NCCNCCO)ccc(NCCNCCO)c21` [mitoxandrone], the “percentage proportion … with C5” value is on record as 25.1 ± 2.0% and the “percentage proportion … without” value was 1.8 ± 0.1%.
With `O=P1(N(CCCl)CCCl)NCCCO1` (centres unmarked) [endoxan], the “percentage proportion … with C3” value is 18.9 ± 0.3% and ~20%; the “percentage proportion … without” value came out at 11.4 ± 0.4%. The “percentage penetrating with increased amount of the C3 derivative” value (amount of the C3 derivative increased 2.5 fold) is on record as “about 50%”.
`COc1cccc2c1C(=O)c1c(O)c3c(c(O)c1C2=O)C[C@@](O)(C(C)=O)C[C@@H]3O[C@H]1C[C@H](N)[C@H](O)[C@H](C)O1` [daunomycin]: the “percentage proportion … with C5” value came out at 76.8 ± 7.0%; the “percentage proportion … with C3” value is listed as 24.1 ± 3.3%; the “percentage proportion … without” value amounted to 10.8 ± 2.7%.
As for `CC[C@]1(O)C[C@@H]2CN(CCc3c([nH]c4ccccc34)[C@@](C(=O)OC)(c3cc4c(cc3OC)N(C)[C@H]3[C@@](O)(C(=O)OC)[C@H](OC(C)=O)[C@]5(CC)C=CCN6CC[C@]43[C@@H]65)C2)C1` [vinblastine], the “percentage proportion … with C5” value worked out at 44.3 ± 6.7%; the “percentage proportion … with C3” value stood at 4.2 ± 0.6%; the “percentage proportion … without” value worked out at 5.4 ± 1.7%.
Consider bleomycin, for which the “percentage proportion … with C5” value was 5.7 ± 1.8% and the “percentage proportion … without” value was determined as 4.9 ± 1.4%. Also, the “penetration improvement” value (FIG. 2, M.W. above 600) was “relatively small”.
Take `O=c1[nH]cc(F)c(=O)[nH]1` [5-fluorouracil]: the “percentage proportion … with C5” value amounted to 13.0 ± 0.1% and the “percentage proportion … without” value is recorded as 3.7 ± 1.0%.
For the compound `CCCCCCCCCCCCCCCCCCOCC(COP(=O)([O-])OCC[N+](C)(C)C)OC` (centres unmarked) [ET 18-O-CH3], the “percentage proportion … with C3” value was 16.4 ± 4.1% and the “percentage proportion … without” value was found to be 4.5 ± 0.8%.

The values are drawn from US5153179A, “Medicament with improved penetration of the tissue membrane” (Max-Planck-Gesellschaft zur Foerderung der Wissenschaft e.V., priority 1983, dated 1992).
